Experimental data taken from US8685935B2, “Use of flavonoids to increase the bioavailability of hesperetin” (Nestec S.A., priority 2009, dated 2014).

Tested on: Caco-2 cell monolayers
Experiment: Caco-2 cell monolayer Transwell model: formation and transport of hesperetin and its conjugates
Assay type: in vitro ADME
Conditions: 120 minutes upon exposure to 10 μM (5 nmol) hesperetin added to the apical compartment
Protocol: Caco-2 cell monolayers were grown on permeable filters that divide a two-compartment cell culture system. Although originally derived from a colonic adenoma carcinoma, differentiating Caco-2 cells are known to display morphological and biochemical properties of intestinal enterocytes including the formation of a polarized layer with expression of ABC transport proteins including Pgp, MRP1, MRP2 and BCRP and metabolizing enzymes.
Using the Caco-2 cell monolayer Transwell model in which the cells in the apical compartment were exposed to hesperetin, or combinations of hesperetin and other flavonoids, we studied the formation and transport of intestinal hesperetin conjugates, which were formed by the Caco-2 cells. 120 minutes upon exposure to 10 μM (5 nmol) hesperetin added to the apical compartment. […] These metabolites were identified as hesperetin 7-O-glucuronide and hesperetin 7-O-sulfate.

Compound | amount of metabolite in apical compartment compared to basolateral
COc1ccc([C@@H]2CC(=O)c3c(O)cc(O[C@@H]4O[C@H](C(=O)O)[C@@H](O)[C@H](O)[C@H]4O)cc3O2)cc1O [hesperetin 7-O-glucuronide] | detected at much higher amounts in the apical compartment compared to the basolateral
COc1ccc([C@@H]2CC(=O)c3c(O)cc(OS(=O)(=O)O)cc3O2)cc1O [hesperetin 7-O-sulfate] | detected at much higher amounts in the apical compartment compared to the basolateral
